In ChEMBL document CHEMBL4825689, “Halting colorectal cancer metastasis via novel dual nanomolar MMP-9/MAO-A quinoxaline-based inhibitors; design, synthesis, and evaluation” (Eur J Med Chem, 2021):
Active and inactive are the calls of the source. The calls are words filed in the database; no cut-off is given here.

Columns and labels:
[1] = target: T1, Matrix metalloproteinase-9 (Homo sapiens, UniProt P14780); assay: Inhibition of MMP9 (unknown origin) by colorimetric assay
[2] = Selectivity index, ratio of IC50 for albino rat epithelial rat to IC50 for human HCT116 cells overexpressing MMP9/MAO-A
[3] = tested on: Epithelial cell; assay: Cytotoxicity against albino rat epithelial rat by MTT assay; type: cell-based
[4] = tested on: HCT-116; assay: Anticancer activity against human HCT-116 cells overexpressing MMP9/MAO-A by MTT assay; type: functional, cell-based
[5] = target: T1, Matrix metalloproteinase-9; assay: Inhibition of MMP9 (unknown origin) at 1.3 uM by colorimetric assay relative to control
[6] = target: T2, Amine oxidase [flavin-containing] A (Homo sapiens, UniProt P21397); assay: Inhibition of MAO-A (unknown origin) by multi-well spectrophotometry
T2 sequence (P21397 whole entry): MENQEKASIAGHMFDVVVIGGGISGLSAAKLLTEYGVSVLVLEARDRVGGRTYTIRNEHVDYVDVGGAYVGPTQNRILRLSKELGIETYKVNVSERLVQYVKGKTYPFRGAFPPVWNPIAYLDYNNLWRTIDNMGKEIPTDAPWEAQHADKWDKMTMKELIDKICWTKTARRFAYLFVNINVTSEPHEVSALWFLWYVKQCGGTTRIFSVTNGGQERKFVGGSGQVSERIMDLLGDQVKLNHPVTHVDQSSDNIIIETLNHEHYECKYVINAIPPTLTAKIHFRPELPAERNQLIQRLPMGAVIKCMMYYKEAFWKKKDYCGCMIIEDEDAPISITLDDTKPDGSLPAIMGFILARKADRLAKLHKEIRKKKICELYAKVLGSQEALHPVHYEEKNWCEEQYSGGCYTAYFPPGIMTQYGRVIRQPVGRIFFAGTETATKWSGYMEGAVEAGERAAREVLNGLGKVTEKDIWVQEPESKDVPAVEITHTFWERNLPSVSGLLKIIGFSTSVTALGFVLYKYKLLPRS

[7] = Suppression of HIF1alpha expression in human HCT116 cells assessed as fold change by qRT-PCR analysis; type: functional, HCT-116
[8] = target: T3, Amine oxidase [flavin-containing] B (Homo sapiens, UniProt P27338); assay: Inhibition of MAO-B (unknown origin) by fluorometric assay
T3 sequence (P27338 whole entry): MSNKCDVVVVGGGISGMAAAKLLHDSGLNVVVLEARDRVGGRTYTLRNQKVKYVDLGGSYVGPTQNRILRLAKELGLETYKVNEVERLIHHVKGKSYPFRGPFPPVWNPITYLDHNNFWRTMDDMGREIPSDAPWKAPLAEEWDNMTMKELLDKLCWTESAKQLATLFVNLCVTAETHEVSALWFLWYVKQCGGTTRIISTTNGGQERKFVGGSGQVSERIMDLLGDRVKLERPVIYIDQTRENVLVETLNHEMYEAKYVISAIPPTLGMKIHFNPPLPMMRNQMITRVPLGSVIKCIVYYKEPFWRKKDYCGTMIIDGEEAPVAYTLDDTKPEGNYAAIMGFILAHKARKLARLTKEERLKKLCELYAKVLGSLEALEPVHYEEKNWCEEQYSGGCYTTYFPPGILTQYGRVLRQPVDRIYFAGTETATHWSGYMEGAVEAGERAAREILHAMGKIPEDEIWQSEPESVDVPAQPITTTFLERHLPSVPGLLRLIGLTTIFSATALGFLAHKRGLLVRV

[9] = tested on: HCT-116; assay: Inhibition of cell migration in human HCT116 cells assessed as suppression of cell migration incubated for 20 hrs by wound healing assay relative to control; type: functional
[10] = organism: Homo sapiens; assay: Selectivity for MAO-B (unknown origin) to MAO-A (unknown origin)
[11] = tested on: HCT-116; assay: Anticancer activity against human HCT116 cells overexpressing MMP9 assessed as shrinkage incubated for 72 hrs by morphology alteration assay; type: functional, cell-based

T1 sequence (P14780 whole entry): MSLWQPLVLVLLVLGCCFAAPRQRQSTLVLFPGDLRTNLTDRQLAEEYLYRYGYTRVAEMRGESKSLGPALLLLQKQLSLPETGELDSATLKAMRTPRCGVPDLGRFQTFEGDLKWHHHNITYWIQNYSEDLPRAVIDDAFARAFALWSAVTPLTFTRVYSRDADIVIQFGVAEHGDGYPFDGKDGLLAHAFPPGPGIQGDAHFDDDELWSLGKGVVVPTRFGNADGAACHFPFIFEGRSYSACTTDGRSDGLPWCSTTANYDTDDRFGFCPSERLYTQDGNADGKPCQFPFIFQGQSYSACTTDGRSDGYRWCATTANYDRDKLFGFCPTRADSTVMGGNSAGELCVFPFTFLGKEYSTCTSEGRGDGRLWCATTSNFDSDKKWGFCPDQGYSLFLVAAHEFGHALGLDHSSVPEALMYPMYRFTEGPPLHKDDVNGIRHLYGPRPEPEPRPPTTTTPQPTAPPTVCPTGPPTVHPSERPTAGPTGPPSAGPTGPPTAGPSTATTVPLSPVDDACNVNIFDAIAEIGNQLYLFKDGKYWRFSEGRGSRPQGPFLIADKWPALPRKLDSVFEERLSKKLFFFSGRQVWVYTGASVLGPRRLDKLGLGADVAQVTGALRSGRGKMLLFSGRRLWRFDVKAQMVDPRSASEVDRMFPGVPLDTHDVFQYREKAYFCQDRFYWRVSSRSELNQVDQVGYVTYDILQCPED

SMILES | IC50 [1] | Selectivity Index [2] | IC50 [3] | IC50 [4] | other results
CC(C)c1ccc(-n2nnc(-c3ccc(S(=O)(=O)NCC(=O)O)cc3)n2)cc1 | 0.11 µM |  |  |  | 
Nn1c(S)nnc1Cn1c(=O)c(Cc2ccccc2)nc2ccccc21 |  | 0.15 | 0.00542 µM | 0.036 µM | 
O=C(CSc1nnc(-c2ccccc2)o1)NCc1ccc2c(c1)OCO2 |  |  |  |  | inhibition [5]: 30.5%
CC(C)(C)OC(=O)C(Cc1ccccc1)NC(=O)Cn1c(=O)c(Cc2ccccc2)nc2ccccc21 (configuration not stated) |  | 1.172 | 0.0261 µM | 0.0223 µM | IC50 ([6]; read-out: IC50): 0.0152 µM
COc1cc(/C=N/NC(N)=S)ccc1O | 0.106 µM |  |  |  | 
O=C(O)Cn1c(=O)c(Cc2ccccc2)nc2ccccc21 |  | 0.844 | 13.3 µM | 0.0158 µM | 
CCOC(=O)NNC(=O)Cn1c(=O)c(Cc2ccccc2)nc2ccccc21 | 0.0045 µM | 5.266 | 0.0389 µM | 0.0074 µM | fold change (FC) [7]: >5; IC50 ([6]; read-out: IC50): 0.0119 µM; IC50 [8]: 0.0112 µM; inhibition (INH) [9]: 28.82%; Selectivity Index [10]: 2.07; Activity [11]: Active
O=c1c(Cc2ccccc2)nc2ccccc2n1CC(O)CCl (configuration not stated) |  | 0.954 | 0.0163 µM | 0.0187 µM | 
O=C1CC(=O)N(C(=O)Cn2c(=O)c(Cc3ccccc3)nc3ccccc32)N1 |  | 0.553 | 0.00895 µM | 16.2 µM | 
CNC(=O)C(Cc1ccccc1)NC(=O)C(CC(C)C)SC1CCCC1S (configuration not stated) | 0.00057 µM |  |  |  | 
O=C(Cn1c(=O)c(Cc2ccccc2)nc2ccccc21)NN=c1c(=O)c2ccccc2c1=O |  | 0.435 | 0.00798 µM | 0.0186 µM | 
Cc1ccc(C(=O)NNC(=O)Cn2c(=O)c(Cc3ccccc3)nc3ccccc32)cc1 | 0.0231 µM | 6.51 | 0.0497 µM | 0.00764 µM | fold change (FC) [7]: >15.94; IC50 ([6]; read-out: IC50): 0.00533 µM; IC50 [8]: 0.0286 µM; inhibition (INH) [9]: 73.32%; Selectivity Index [10]: 1.88; Activity [11]: Active
O=c1c(Cc2ccccc2)nc2ccccc2n1CC(O)CO (configuration not stated) | 0.0093 µM | 5.52 | 0.0487 µM | 0.00881 µM | fold change (FC) [7]: >5; IC50 ([6]; read-out: IC50): 0.024 µM; IC50 [8]: 0.011 µM; inhibition (INH) [9]: 27.48%; Selectivity Index [10]: 0.921; Activity [11]: Active
O=C(Cn1c(=O)c(Cc2ccccc2)nc2ccccc21)NNC(=S)Nc1ccccc1 | 0.00841 µM | 2.751 | 0.0161 µM | 0.00584 µM | fold change (FC) [7]: >5; IC50 ([6]; read-out: IC50): 0.00541 µM; IC50 [8]: 0.00681 µM; inhibition (INH) [9]: 21.27%; Selectivity Index [10]: 0.649
O=C(Cn1c(=O)c(Cc2ccccc2)nc2ccccc21)OCCNCCO |  |  | 0.00503 µM | 0.0165 µM | 
COc1cccc2c1C(=O)c1c(O)c3c(c(O)c1C2=O)C[C@@](O)(C(=O)CO)C[C@@H]3O[C@H]1C[C@H](N)[C@H](O)[C@H](C)O1 [DOXORUBICIN] |  | 0.013 | 0.00979 µM | 0.761 µM | 
Nn1c(Cn2c(=O)c(Cc3ccccc3)nc3ccccc32)nnc1Cn1c(=O)c(Cc2ccccc2)nc2ccccc21 |  | 0.405 | 0.00604 µM | 0.0149 µM | 
C#CCN(C)CCCOc1ccc(Cl)cc1Cl [CLORGILINE] |  |  |  |  | IC50 [6]: Not Active
O=c1c(Cc2ccccc2)nc2ccccc2n1Cc1nnco1 |  |  | 0.00984 µM | 0.0459 µM | 
C(=N\NC1Nc2ccccc2N=C1Cc1ccccc1)/c1ccccc1 (configuration not stated) |  |  |  |  | IC50 ([6]; read-out: IC50): 0.081 µM
N=C(N)NS(=O)(=O)c1ccc(NC(=O)Cn2c(=O)c(Cc3ccccc3)nc3ccccc32)cc1 |  | 0.695 | 0.00897 µM | 0.0129 µM | 
O=c1c(Cc2ccccc2)nc2ccccc2n1Cc1nnc(S)n1-c1ccccc1 |  |  | 0.00778 µM | 0.0198 µM | 
NNC(=O)Cn1c(=O)c(Cc2ccccc2)nc2ccccc21 |  | 0.729 | 0.0106 µM | 0.0147 µM | 
O=C(Cn1c(=O)c(Cc2ccccc2)nc2ccccc21)N/N=C/c1ccccc1O |  | 0.508 | 0.00812 µM | 16.3 µM | 
NC(=S)NNC(=O)Cn1c(=O)c(Cc2ccccc2)nc2ccccc21 | 0.00507 µM | 9.648 | 0.0537 µM | 0.00557 µM | fold change (FC) [7]: >11.02; IC50 ([6]; read-out: IC50): 0.0105 µM; IC50 [8]: 0.00709 µM; inhibition (INH) [9]: 61.29%; Selectivity Index [10]: 1.33
c1ccc(Cc2nc3ccccc3n3cnnc23)cc1 |  |  |  |  | IC50 ([6]; read-out: IC50): 0.0007 µM
O=c1c(Cc2ccccc2)nc2ccccc2n1Cc1nnc(S)o1 |  | 0.512 | 0.00529 µM | 0.0107 µM | 
O=c1c(O)c(-c2ccc(O)c(O)c2)oc2cc(O)cc(O)c12 [QUERCETIN] | 0.174 µM |  |  |  | 
CCOC(=O)Cn1c(=O)c(Cc2ccccc2)nc2ccccc21 |  | 0.559 | 0.0102 µM | 0.0183 µM | 
